Source: ChEMBL document CHEMBL3612012, “Identification of orally-bioavailable antagonists of the TRPV4 ion-channel” (Bioorg Med Chem Lett, 2015)
≈ marks a conversion by molar mass, not a printed value.

Assays:
Homo sapiens [1] = organism: Homo sapiens; test: Binding affinity to chloride channel (unknown origin) assessed as inhibition of control specific binding at 10 uM
[2] = target: Sodium-dependent dopamine transporter (Homo sapiens) (UniProt Q01959); test: Binding affinity to human DA transporter assessed as inhibition of control specific binding at 10 uM
[3] = target: Sodium-dependent serotonin transporter (Homo sapiens) (UniProt P31645); test: Binding affinity to human 5-HT transporter assessed as inhibition of control specific binding at 10 uM
[4] = AUC (infinity) in Wistar rat at 1.40 mg/kg, iv; format: ADME, organism-based; set-up: dose 1.4 mg/kg, time infinity, route intravenous; conditions: in vivo, 1.4 mg/kg
[5] = Volume of distribution at steady state in Wistar rat at 1.40 mg/kg, iv; format: ADME, organism-based; conditions: in vivo, 1.4 mg/kg, read-out: Vdss
[6] = Half life in Wistar rat at 1.40 mg/kg, iv; format: ADME, organism-based; conditions: in vivo, 1.4 mg/kg
[7] = AUC (infinity) in Wistar rat at 29.73 mg/kg, po; format: ADME, organism-based; set-up: dose 29.73 mg/kg, time infinity, route oral; conditions: in vivo
[8] = Solubility of the compound at pH 7.4; format: physicochemical; conditions: buffer
[9] = Plasma protein binding in rat; format: ADME, cell-free; conditions: read-out: PPB (converted)
[10] = Plasma protein binding in human; format: ADME, cell-free; conditions: read-out: PPB (converted)
[11] = target: Transient receptor potential cation channel subfamily V member 4 (Rattus norvegicus, UniProt Q9ERZ8); test: Antagonist activity at rat TRPV4 expressed in HEK293 cells assessed as inhibition of 20% hypotonic solution-induced Ca2+ influx; format: cell-based
[12] = target: Transient receptor potential cation channel subfamily V member 4 (Mus musculus, UniProt Q9EPK8); test: Antagonist activity at mouse TRPV4 receptor expressed in HEK293 cells assessed as inhibition of EC80 of 4alpha-PDD-stimulated calcium flux after 10 mins; format: cell-based
[13] = target: Transient receptor potential cation channel subfamily V member 3 (Homo sapiens, UniProt Q8NET8); test: Antagonist activity at human TRPV3 receptor expressed in HEK293 cells assessed as inhibition of capsaicin-stimulated calcium flux after 10 mins; format: cell-based
[14] = target: Transient receptor potential cation channel subfamily M member 8 (Homo sapiens, UniProt Q7Z2W7); test: Antagonist activity at human TRPM8 receptor expressed in HEK293 cells assessed as inhibition of menthol-stimulated calcium flux after 10 mins; format: cell-based
[15] = Cmax in Wistar rat at 32.50 mg/kg, ip; format: ADME, organism-based; set-up: dose 32.5 mg/kg, route intraperitoneal; conditions: in vivo, 32.5 mg/kg
[16] = Bioavailability in Wistar rat at 32.50 mg/kg, ip; format: ADME, organism-based; conditions: in vivo, 32.5 mg/kg
[17] = target: Adenosine receptor A1 (Homo sapiens) (UniProt P30542); test: Binding affinity to human adenosine A1 receptor assessed as inhibition of control specific binding at 10 uM
[18] = target: Adenosine receptor A3 (Homo sapiens) (UniProt P0DMS8); test: Binding affinity to human adenosine A3 receptor assessed as inhibition of control specific binding at 10 uM
[19] = target: Adrenergic receptor alpha-1 (Homo sapiens) (UniProt P35348+P25100+P35368); test: Binding affinity to non-selective alpha1 adrenergic receptor (unknown origin) assessed as inhibition of control specific binding at 10 uM; format: protein assay
[20] = target: Adrenergic receptor alpha-2 (Homo sapiens) (UniProt P08913+P18825+P18089); test: Binding affinity to non-selective alpha2 adrenergic receptor (unknown origin) assessed as inhibition of control specific binding at 10 uM; format: protein assay
[21] = target: Beta-2 adrenergic receptor (Homo sapiens) (UniProt P07550); test: Binding affinity to human beta2 adrenergic receptor assessed as inhibition of control specific binding at 10 uM
[22] = target: Type-1 angiotensin II receptor (Homo sapiens) (UniProt P30556); test: Binding affinity to human AT1 receptor assessed as inhibition of control specific binding at 10 uM
Homo sapiens [23] = organism: Homo sapiens; test: Binding affinity to central benzodiazepine receptor (unknown origin) assessed as inhibition of control specific binding at 10 uM
[24] = target: Cannabinoid receptor 1 (Homo sapiens) (UniProt P21554); test: Binding affinity to human CB1 receptor assessed as inhibition of control specific binding at 10 uM
[25] = target: D(2) dopamine receptor (Homo sapiens) (UniProt P14416); test: Binding affinity to human D2S receptor assessed as inhibition of control specific binding at 10 uM
[26] = target: Galanin receptor type 2 (Homo sapiens) (UniProt O43603); test: Binding affinity to human GAL2 receptor assessed as inhibition of control specific binding at 10 uM
[27] = target: C-X-C chemokine receptor type 2 (Homo sapiens) (UniProt P25025); test: Binding affinity to human CXCR2 receptor assessed as inhibition of control specific binding at 10 uM
[28] = target: Histamine H1 receptor (Homo sapiens) (UniProt P35367); test: Binding affinity to human H1 receptor assessed as inhibition of control specific binding at 10 uM
[29] = target: Melatonin receptor type 1A (Homo sapiens) (UniProt P48039); test: Binding affinity to human MT1 receptor assessed as inhibition of control specific binding at 10 uM
[30] = target: Muscarinic acetylcholine receptor M1 (Homo sapiens) (UniProt P11229); test: Binding affinity to human M1 receptor assessed as inhibition of control specific binding at 10 uM
[31] = target: Substance-K receptor (Homo sapiens) (UniProt P21452); test: Binding affinity to human NK2 receptor assessed as inhibition of control specific binding at 10 uM
[32] = target: Neuropeptide Y receptor type 2 (Homo sapiens) (UniProt P49146); test: Binding affinity to human Y2 receptor assessed as inhibition of control specific binding at 10 uM
[33] = target: Mu-type opioid receptor (Homo sapiens) (UniProt P35372); test: Binding affinity to human mu opioid receptor agonist site assessed as inhibition of control specific binding at 10 uM
[34] = target: Thromboxane A2 receptor (Homo sapiens) (UniProt P21731); test: Binding affinity to human TP receptor assessed as inhibition of control specific binding at 10 uM
[35] = target: 5-hydroxytryptamine receptor 1A (Homo sapiens) (UniProt P08908); test: Binding affinity to human 5-HT1A receptor assessed as inhibition of control specific binding at 10 uM
[36] = target: 5-hydroxytryptamine receptor 2A (Homo sapiens) (UniProt P28223); test: Binding affinity to human 5-HT2A receptor assessed as inhibition of control specific binding at 10 uM
[37] = target: 5-hydroxytryptamine receptor 3A (Homo sapiens) (UniProt P46098); test: Binding affinity to human 5-HT3 receptor assessed as inhibition of control specific binding at 10 uM
[38] = target: 5-hydroxytryptamine receptor 6 (Homo sapiens) (UniProt P50406); test: Binding affinity to human 5-HT6 receptor assessed as inhibition of control specific binding at 10 uM
[39] = target: 5-hydroxytryptamine receptor 7 (Homo sapiens) (UniProt P34969); test: Binding affinity to human 5-HT7 receptor assessed as inhibition of control specific binding at 10 uM
Homo sapiens [40] = organism: Homo sapiens; test: Binding affinity to SK+ calcium channel (unknown origin) assessed as inhibition of control specific binding at 10 uM
Homo sapiens [41] = organism: Homo sapiens; test: Binding affinity to sodium channel site-2 (unknown origin) assessed as inhibition of control specific binding at 10 uM

Sequence of Transient receptor potential cation channel subfamily V member 4 (Rattus norvegicus, UniProt Q9ERZ8) (Q9ERZ8 whole entry): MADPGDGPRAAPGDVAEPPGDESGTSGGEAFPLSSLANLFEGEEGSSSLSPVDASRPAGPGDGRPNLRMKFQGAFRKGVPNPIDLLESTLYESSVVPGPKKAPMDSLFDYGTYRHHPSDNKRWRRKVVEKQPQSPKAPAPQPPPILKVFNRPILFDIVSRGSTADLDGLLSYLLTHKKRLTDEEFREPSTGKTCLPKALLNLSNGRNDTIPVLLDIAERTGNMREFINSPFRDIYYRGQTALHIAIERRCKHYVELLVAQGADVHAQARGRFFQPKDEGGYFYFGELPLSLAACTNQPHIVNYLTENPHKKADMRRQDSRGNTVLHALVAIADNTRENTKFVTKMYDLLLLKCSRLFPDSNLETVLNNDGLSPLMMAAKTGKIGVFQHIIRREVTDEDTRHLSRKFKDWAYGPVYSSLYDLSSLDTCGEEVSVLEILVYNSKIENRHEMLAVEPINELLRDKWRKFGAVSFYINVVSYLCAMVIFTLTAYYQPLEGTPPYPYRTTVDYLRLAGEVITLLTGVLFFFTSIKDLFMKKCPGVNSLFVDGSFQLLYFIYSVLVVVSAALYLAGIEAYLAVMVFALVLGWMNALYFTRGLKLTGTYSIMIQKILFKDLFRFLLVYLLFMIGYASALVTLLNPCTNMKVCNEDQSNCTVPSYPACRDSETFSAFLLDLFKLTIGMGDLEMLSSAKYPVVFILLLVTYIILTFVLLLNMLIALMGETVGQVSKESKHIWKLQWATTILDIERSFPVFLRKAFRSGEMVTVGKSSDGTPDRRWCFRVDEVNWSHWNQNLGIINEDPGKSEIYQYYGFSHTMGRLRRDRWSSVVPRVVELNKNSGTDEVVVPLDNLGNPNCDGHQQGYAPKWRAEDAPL
Sequence of Beta-2 adrenergic receptor (Homo sapiens) (P07550 whole entry, looked up): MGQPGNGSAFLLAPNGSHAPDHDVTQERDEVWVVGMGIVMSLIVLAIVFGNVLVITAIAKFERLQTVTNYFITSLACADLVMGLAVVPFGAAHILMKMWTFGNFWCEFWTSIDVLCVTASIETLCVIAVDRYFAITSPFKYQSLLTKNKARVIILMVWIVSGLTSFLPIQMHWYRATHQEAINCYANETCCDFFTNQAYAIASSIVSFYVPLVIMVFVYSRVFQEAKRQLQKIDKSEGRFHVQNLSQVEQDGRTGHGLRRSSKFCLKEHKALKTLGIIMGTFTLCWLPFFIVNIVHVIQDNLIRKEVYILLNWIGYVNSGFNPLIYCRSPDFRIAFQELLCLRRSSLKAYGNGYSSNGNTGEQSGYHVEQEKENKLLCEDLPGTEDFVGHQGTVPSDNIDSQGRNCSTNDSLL
Sequence of Sodium-dependent serotonin transporter (Homo sapiens) (P31645 whole entry, looked up): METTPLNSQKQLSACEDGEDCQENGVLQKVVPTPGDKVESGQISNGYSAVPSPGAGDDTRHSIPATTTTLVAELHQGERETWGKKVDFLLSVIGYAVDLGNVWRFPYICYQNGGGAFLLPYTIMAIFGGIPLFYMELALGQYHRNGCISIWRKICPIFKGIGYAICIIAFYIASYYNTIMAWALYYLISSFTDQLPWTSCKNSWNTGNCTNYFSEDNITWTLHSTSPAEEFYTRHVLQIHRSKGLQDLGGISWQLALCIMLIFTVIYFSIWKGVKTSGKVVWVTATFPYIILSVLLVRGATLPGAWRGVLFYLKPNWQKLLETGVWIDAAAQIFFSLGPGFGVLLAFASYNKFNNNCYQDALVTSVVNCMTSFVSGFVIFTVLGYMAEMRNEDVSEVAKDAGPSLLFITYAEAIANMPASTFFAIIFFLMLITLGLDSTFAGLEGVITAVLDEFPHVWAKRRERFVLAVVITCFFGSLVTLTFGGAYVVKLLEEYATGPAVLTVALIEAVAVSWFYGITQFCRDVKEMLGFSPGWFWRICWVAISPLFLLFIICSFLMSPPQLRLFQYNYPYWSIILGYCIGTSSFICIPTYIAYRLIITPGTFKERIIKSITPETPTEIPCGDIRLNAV
Sequence of Sodium-dependent dopamine transporter (Homo sapiens) (Q01959 whole entry): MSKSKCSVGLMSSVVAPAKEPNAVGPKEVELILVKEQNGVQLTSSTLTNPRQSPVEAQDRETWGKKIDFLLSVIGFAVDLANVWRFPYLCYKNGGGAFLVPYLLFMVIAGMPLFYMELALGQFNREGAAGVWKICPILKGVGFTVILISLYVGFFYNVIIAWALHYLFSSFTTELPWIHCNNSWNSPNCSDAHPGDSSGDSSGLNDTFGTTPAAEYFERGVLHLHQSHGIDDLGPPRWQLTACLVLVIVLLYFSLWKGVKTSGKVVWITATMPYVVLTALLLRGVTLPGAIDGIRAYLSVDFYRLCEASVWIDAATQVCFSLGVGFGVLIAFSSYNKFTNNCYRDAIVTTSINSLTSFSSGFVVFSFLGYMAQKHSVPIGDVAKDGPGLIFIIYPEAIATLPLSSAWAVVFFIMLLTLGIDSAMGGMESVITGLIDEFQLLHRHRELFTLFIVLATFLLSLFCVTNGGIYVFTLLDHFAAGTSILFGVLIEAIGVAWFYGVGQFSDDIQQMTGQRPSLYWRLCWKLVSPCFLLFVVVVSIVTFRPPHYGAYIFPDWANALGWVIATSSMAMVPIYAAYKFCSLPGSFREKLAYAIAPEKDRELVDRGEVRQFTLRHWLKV
Sequence of Type-1 angiotensin II receptor (Homo sapiens) (P30556 whole entry): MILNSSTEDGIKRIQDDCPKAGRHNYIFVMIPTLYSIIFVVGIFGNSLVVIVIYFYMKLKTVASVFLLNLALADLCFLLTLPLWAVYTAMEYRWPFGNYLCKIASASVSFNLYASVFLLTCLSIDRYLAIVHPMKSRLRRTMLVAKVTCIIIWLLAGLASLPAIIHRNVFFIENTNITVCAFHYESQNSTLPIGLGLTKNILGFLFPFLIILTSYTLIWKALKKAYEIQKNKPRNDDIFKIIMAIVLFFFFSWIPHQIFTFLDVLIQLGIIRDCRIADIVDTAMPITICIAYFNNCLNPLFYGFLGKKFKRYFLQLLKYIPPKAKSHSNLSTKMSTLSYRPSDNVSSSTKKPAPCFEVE
Sequence of Adenosine receptor A3 (Homo sapiens) (P0DMS8 whole entry): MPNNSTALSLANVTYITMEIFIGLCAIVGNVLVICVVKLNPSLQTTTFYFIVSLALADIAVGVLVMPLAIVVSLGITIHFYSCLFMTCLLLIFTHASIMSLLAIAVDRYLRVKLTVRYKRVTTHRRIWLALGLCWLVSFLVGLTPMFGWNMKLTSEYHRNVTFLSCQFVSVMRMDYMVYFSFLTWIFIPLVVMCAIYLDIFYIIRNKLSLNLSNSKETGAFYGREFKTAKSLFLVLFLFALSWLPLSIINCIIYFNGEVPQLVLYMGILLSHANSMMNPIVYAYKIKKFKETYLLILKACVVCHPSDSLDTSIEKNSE
Sequence of 5-hydroxytryptamine receptor 2A (Homo sapiens) (P28223 whole entry): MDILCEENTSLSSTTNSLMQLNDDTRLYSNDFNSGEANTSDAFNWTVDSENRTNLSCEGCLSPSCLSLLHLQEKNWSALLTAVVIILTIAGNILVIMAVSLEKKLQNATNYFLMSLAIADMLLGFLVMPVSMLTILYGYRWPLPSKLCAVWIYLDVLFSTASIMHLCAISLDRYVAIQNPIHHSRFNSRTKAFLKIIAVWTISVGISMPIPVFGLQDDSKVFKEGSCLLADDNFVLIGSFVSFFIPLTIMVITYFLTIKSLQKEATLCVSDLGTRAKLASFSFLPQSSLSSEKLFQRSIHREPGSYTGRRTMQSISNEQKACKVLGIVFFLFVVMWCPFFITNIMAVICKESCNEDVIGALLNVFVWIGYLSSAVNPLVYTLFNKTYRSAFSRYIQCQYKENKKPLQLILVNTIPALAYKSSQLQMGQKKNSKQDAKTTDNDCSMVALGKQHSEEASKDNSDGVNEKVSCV
Sequence of Transient receptor potential cation channel subfamily M member 8 (Q7Z2W7 whole entry): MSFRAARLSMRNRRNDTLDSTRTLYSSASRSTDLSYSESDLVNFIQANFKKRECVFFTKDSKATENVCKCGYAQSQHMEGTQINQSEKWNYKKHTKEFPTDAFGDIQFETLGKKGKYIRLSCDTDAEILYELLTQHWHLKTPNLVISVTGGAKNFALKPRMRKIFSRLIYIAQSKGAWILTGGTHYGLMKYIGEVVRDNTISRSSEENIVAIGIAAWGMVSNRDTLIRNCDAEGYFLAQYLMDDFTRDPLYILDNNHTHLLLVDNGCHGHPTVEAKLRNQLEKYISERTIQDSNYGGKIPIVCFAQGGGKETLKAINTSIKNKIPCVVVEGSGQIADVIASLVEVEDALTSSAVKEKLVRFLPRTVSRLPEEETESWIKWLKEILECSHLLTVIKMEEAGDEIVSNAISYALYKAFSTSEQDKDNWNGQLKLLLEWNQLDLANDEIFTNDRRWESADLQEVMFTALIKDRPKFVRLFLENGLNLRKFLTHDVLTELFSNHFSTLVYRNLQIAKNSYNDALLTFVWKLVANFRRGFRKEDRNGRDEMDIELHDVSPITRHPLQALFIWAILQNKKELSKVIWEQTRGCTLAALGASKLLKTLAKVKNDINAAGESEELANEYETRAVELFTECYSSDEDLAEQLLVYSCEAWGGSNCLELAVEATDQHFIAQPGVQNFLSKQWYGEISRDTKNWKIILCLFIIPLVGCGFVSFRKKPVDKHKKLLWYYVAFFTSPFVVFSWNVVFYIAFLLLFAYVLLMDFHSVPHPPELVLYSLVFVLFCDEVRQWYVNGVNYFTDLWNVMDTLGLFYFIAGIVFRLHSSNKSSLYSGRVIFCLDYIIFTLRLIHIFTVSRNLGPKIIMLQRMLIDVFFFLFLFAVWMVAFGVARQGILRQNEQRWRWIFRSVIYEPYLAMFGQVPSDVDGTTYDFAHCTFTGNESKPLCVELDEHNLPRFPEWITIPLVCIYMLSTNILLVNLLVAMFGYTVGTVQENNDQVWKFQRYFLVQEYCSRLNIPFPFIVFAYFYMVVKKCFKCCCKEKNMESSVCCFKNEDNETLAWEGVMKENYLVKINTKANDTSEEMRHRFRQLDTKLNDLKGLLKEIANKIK

- inhibition (Homo sapiens [1]): 24%
- inhibition [2]: 10%
- inhibition [3]: 6%
- AUC(0-inf) [4]: 1010 ng·h/mL
- Vd [5]: 1.44 L/kg
- half-life [6]: 42.6 min
- AUC(0-inf) [7]: 10100 ng·h/mL
- solubility [8]: 45.5 µM (≈ 22.8 µg/mL)
- fraction unbound [9]: 0.01
- fraction unbound [10]: 0.01
- IC50 [11]: 2100 nM
- IC50 [12]: 320 nM
- IC50 [13]: > 30000 nM
- IC50 [14]: 30000 nM
- Cmax [15]: 10600 ng/mL
- bioavailability [16]: 75%
- inhibition [17]: 2%
- inhibition [18]: 10%
- inhibition [19]: 6%
- inhibition [20]: -1%
- inhibition [21]: 1%
- inhibition [22]: -6%
- inhibition (Homo sapiens [23]): 9%
- inhibition [24]: 3%
- inhibition [25]: 2%
- inhibition [26]: 4%
- inhibition [27]: -4%
- inhibition [28]: 4%
- inhibition [29]: 5%
- inhibition [30]: 76%
- inhibition [31]: 15%
- inhibition [32]: 1%
- inhibition [33]: 9%
- inhibition [34]: -6%
- inhibition [35]: -4%
- inhibition [36]: 28%
- inhibition [37]: -3%
- inhibition [38]: -2%
- inhibition [39]: -5%
- inhibition (Homo sapiens [40]): -4%
- inhibition (Homo sapiens [41]): 17%
Structure (SMILES): CC(C)N1CCN(S(=O)(=O)c2ccc(NC(=O)c3ccc(C(F)(F)F)cc3[N+](=O)[O-])cc2)CC1
